Measured values as given in patent US20260262643A1, “HERBICIDAL BENZOXAZINES” (FMC CORPORATION, priority 2022, published 2026).

Legend:
[1] = test system: green foxtail; assay: Test C preemergence; type: in vivo, Setaria viridis; conditions: 0 to 100 scale (0 no effect, 100 complete control)
Outline: (§1)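 Greenhouse herbicide screen, 10-day duration. Test chemicals in solvent/surfactant blend were sprayed onto soil at sowing (pre) or onto 2–10 cm seedlings at one to two leaves (post); injury scored visually against controls, 0 no effect to 100 complete control.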

[2] = test system: wheat; assay: Test C preemergence; type: in vivo, Triticum aestivum; conditions: 0 to 100 scale (0 no effect, 100 complete control)
Outline: as §1

[3] = test system: ducksalad; assay: Test D flooded paddy test; type: in vivo, Heteranthera limosa; conditions: 250 g ai/ha, applied to paddy water, visual rating after 13 to 14 days, scale 0 to 100 (0 no effect, 100 complete control)
Outline: (§2)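 Visual ratings from 0, meaning no effect, to 100, meaning complete control, were assigned against untreated controls 13 to 14 days after compounds were added to the floodwater of pots kept 3 cm deep, with plants at the 2-leaf stage.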

[4] = test system: rice; assay: Test D flooded paddy test; type: in vivo, Oryza sativa; conditions: 250 g ai/ha, applied to paddy water, visual rating after 13 to 14 days, scale 0 to 100 (0 no effect, 100 complete control)
Outline: as §2

[5] = test system: soybean; assay: Test C postemergence; type: in vivo, Glycine max; conditions: 10 days
Outline: as §1

[6] = test system: oat, wild; assay: Test C preemergence; type: in vivo, Avena fatua; conditions: 0 to 100 scale (0 no effect, 100 complete control)
Outline: as §1

[7] = test system: blackgrass; assay: Test C preemergence; type: in vivo, Alopecurus myosuroides; conditions: 0 to 100 scale (0 no effect, 100 complete control)
Outline: as §1

[8] = test system: barnyardgrass; assay: Test C postemergence; type: in vivo, Echinochloa crusgalli; conditions: 10 days
Outline: as §1

[9] = test system: blackgrass; assay: Test C postemergence; type: in vivo, Alopecurus myosuroides; conditions: 10 days
Outline: as §1

[10] = test system: kochia; assay: Test C preemergence; type: in vivo, Bassia scoparia; conditions: 0 to 100 scale (0 no effect, 100 complete control)
Outline: as §1

[11] = test system: wheat; assay: Test C postemergence; type: in vivo, Triticum aestivum; conditions: 10 days
Outline: as §1

[12] = test system: corn; assay: Test C postemergence; type: in vivo, Zea mays; conditions: 10 days
Outline: as §1

[13] = test system: ryegrass, Italian; assay: Test C postemergence; type: in vivo, Lolium multiflorum; conditions: 10 days
Outline: as §1

[14] = test system: galium; assay: Test C postemergence; type: in vivo, Galium aparine; conditions: 10 days
Outline: as §1

[15] = test system: ragweed; assay: Test C preemergence; type: in vivo, Ambrosia artemisiifolia; conditions: 0 to 100 scale (0 no effect, 100 complete control)
Outline: as §1

[16] = test system: pigweed, palmer; assay: Test C postemergence; type: in vivo, Amaranthus palmeri; conditions: 10 days
Outline: as §1

[17] = test system: sedge, umbrella; assay: Test D flooded paddy test; type: in vivo, Cyperus difformis; conditions: 250 g ai/ha, applied to paddy water, visual rating after 13 to 14 days, scale 0 to 100 (0 no effect, 100 complete control)
Outline: as §2

[18] = test system: green foxtail; assay: Test C postemergence; type: in vivo, Setaria viridis; conditions: 10 days
Outline: as §1

[19] = test system: corn; assay: Test C preemergence; type: in vivo, Zea mays; conditions: 0 to 100 scale (0 no effect, 100 complete control)
Outline: as §1

[20] = test system: ragweed; assay: Test C postemergence; type: in vivo, Ambrosia artemisiifolia; conditions: 10 days
Outline: as §1

[21] = test system: barnyardgrass; assay: Test D flooded paddy test; type: in vivo, Echinochloa crus-galli; conditions: 250 g ai/ha, applied to paddy water, visual rating after 13 to 14 days, scale 0 to 100 (0 no effect, 100 complete control)
Outline: as §2

[22] = test system: oat, wild; assay: Test C postemergence; type: in vivo, Avena fatua; conditions: 10 days
Outline: as §1

[23] = test system: soybean; assay: Test C preemergence; type: in vivo, Glycine max; conditions: 0 to 100 scale (0 no effect, 100 complete control)
Outline: as §1

[24] = test system: horseweed; assay: Test C postemergence; type: in vivo, Erigeron canadensis; conditions: 10 days
Outline: as §1

[25] = test system: barnyardgrass; assay: Test C preemergence; type: in vivo, Echinochloa crusgalli; conditions: 0 to 100 scale (0 no effect, 100 complete control)
Outline: as §1

[26] = test system: ryegrass, Italian; assay: Test C preemergence; type: in vivo, Lolium multiflorum; conditions: 0 to 100 scale (0 no effect, 100 complete control)
Outline: as §1

[27] = test system: pigweed, palmer; assay: Test C preemergence; type: in vivo, Amaranthus palmeri; conditions: 0 to 100 scale (0 no effect, 100 complete control)
Outline: as §1

[28] = test system: kochia; assay: Test C postemergence; type: in vivo, Bassia scoparia; conditions: 10 days
Outline: as §1

[29] = Preemergence, 500 g ai/ha, visual rating after 10 days
[30] = Test C, preemergence, 125 g ai/ha
[31] = 125 g ai/ha, postemergence, 0 to 100 scale, 0 no effect, 100 complete control
[32] = Postemergence, 500 g ai/ha, visual 0 to 100 scale (0 no effect, 100 complete control)

CCc1c(F)cc(-n2cnc(C(C)C)n2)cc1C(=O)N1C[C@H](C)Oc2c(Cl)cccc21 [Compound 152]
40: Plant response rating, Wheat [2, 29] | Kochia plant response rating [10, 30] | Plant response rating, Corn [12, 31] | Plant response rating, Foxtail, Green [18, 31] | Plant response rating, Ragweed [20, 31]
0: Plant response rating, Ducksalad (Flood) [3] | Plant response rating, Rice (Flood) [4] | Plant response rating, Ragweed [15, 29] | Ragweed plant response rating [15, 30] | Plant response rating, Sedge, Umbrella (Flood) [17] | Plant response rating, Barnyardgrass (Flood) [21] | Plant response rating, Oat, Wild [22, 31] | Plant response rating, Horseweed [24, 31] | Plant response rating, Horseweed [24, 32]
70: Plant response rating, Oat, Wild [6, 29] | Plant response rating, Blackgrass [9, 32] | Plant response rating, Corn [12, 32] | Plant response rating, Soybean [23, 29] | Barnyardgrass plant response rating ([25]; 125 g ai/ha, preemergence) | Ryegrass, Italian plant response rating [26, 30]
20: Wheat plant response rating [2, 30] | Plant response rating, Wheat [11, 31] | Plant response rating, Wheat [11, 32]
100: Plant response rating, Foxtail, Green [1, 29] | Foxtail, Green plant response rating [1, 30] | Plant response rating, Soybean [5, 31] | Plant response rating, Soybean [5, 32] | Plant response rating, Galium [14, 31] | Plant response rating, Galium [14, 32]
50: Blackgrass plant response rating [7, 30] | Plant response rating, Blackgrass [9, 31] | Plant response rating, Corn [19, 29] | Soybean plant response rating [23, 30]
90: Plant response rating, Barnyardgrass [8, 32] | Plant response rating, Kochia [10, 29] | Plant response rating, Pigweed, Palmer [16, 32] | Plant response rating, Foxtail, Green [18, 32] | Plant response rating, Barnyardgrass [25, 29] | Plant response rating, Ryegrass, Italian [26, 29] | Plant response rating, Pigweed, Palmer [27, 29] | Pigweed, Palmer plant response rating [27, 30]
80: Plant response rating, Pigweed, Palmer [16, 31] | Plant response rating, Kochia [28, 31] | Plant response rating, Kochia [28, 32]
30: Plant response rating, Ryegrass, Italian [13, 31] | Corn plant response rating [19, 30] | Plant response rating, Oat, Wild [22, 32]
60: Oat, Wild plant response rating [6, 30] | Plant response rating, Blackgrass [7, 29] | Plant response rating, Barnyardgrass [8, 31] | Plant response rating, Ryegrass, Italian [13, 32] | Plant response rating, Ragweed [20, 32]
